One assay deals with Aspergillus niger. Briefly: Antifungal activity against Aspergillus niger assessed as reduction in fungal cell growth incubated for 48 hrs by serial dilution method. It counts as functional.
In a further assay the test system is Cryptococcus neoformans. Description: Antifungal activity against Cryptococcus neoformans assessed as reduction in fungal cell growth incubated for 48 hrs by serial dilution method. It counts as functional.
A further assay concerns Bacillus cereus. Briefly: Antibacterial activity against Bacillus cereus assessed as reduction in bacterial cell growth incubated for 24 hrs by filter paper assay. It counts as functional.
For a further assay, the system named is Curvularia lunata. Briefly: Antifungal activity against Curvularia lunata assessed as reduction in fungal cell growth incubated for 48 hrs by serial dilution method. It counts as functional.
A further assay has as its system Ralstonia solanacearum. Description: Antibacterial activity against Ralstonia solanacearum assessed as reduction in bacterial cell growth incubated for 24 hrs by filter paper assay. It counts as functional.
Another assay relates to Aspergillus flavus. Description: Antifungal activity against Aspergillus flavus assessed as reduction in fungal cell growth incubated for 48 hrs by serial dilution method. It counts as functional.
Assay [1] has as its system Fusarium oxysporum f. sp. vasinfectum. Description: Antifungal activity against Fusarium oxysporum sp. vasinfectum assessed as reduction in fungal cell growth incubated for 48 hrs by serial dilution method. It counts as functional.
A further assay concerns Pseudomonas aeruginosa. Description: Antibacterial activity against Pseudomonas aeruginosa assessed as reduction in bacterial cell growth incubated for 24 hrs by filter paper assay. It counts as functional.
In the next assay the test system is Candida tropicalis. Briefly: Antifungal activity against Candida tropicalis assessed as reduction in fungal cell growth incubated for 48 hrs by serial dilution method. It counts as functional.
In another assay the test system is Cytospora. Description: Antifungal activity against Cytospora juglandis assessed as reduction in fungal cell growth incubated for 48 hrs by serial dilution method. It counts as functional.
Another assay concerns the target Acetylcholinesterase (Electrophorus electricus, UniProt O42275). Description: Inhibition of electric eel AChE by Ellman's colorimetry. In general terms: DTNB colorimetry detects thiols as they appear.
The test system of a further assay is Verticillium dahliae. Description: Antifungal activity against Verticillium dahliae assessed as reduction in fungal cell growth incubated for 48 hrs by serial dilution method. It counts as functional.
In another assay the test system is Staphylococcus aureus. Briefly: Antibacterial activity against Staphylococcus aureus assessed as reduction in bacterial cell growth incubated for 24 hrs by filter paper assay. It counts as functional.
The test system of a further assay is Fusarium oxysporum. Description: Antifungal activity against Fusarium oxysporum assessed as reduction in fungal cell growth incubated for 48 hrs by serial dilution method. It counts as functional.
Assay [2] relates to Colletotrichum orbiculare. Briefly: Antifungal activity against Colletotrichum orbiculare assessed as reduction in fungal cell growth incubated for 48 hrs by serial dilution method. It counts as functional.
For another assay, the system named is Penicillium citrinum. Briefly: Antifungal activity against Penicillium citrinum assessed as reduction in fungal cell growth incubated for 48 hrs by serial dilution method. It counts as functional.
The subject of the next assay is Candida. Description: Antifungal activity against […] assessed as reduction in fungal cell growth incubated for 48 hrs by serial dilution method. It counts as functional.
The test system of the next assay is Escherichia coli. Description: Antibacterial activity against Escherichia coli assessed as reduction in bacterial cell growth incubated for 24 hrs by filter paper assay. It counts as functional.

SMILES strings stand for the structures. In brackets after ≈: the same amount, converted by molar mass. Activity calls are given as the source filed them. The rule behind the calls is not given here.

Chain of Acetylcholinesterase (O42275 whole entry): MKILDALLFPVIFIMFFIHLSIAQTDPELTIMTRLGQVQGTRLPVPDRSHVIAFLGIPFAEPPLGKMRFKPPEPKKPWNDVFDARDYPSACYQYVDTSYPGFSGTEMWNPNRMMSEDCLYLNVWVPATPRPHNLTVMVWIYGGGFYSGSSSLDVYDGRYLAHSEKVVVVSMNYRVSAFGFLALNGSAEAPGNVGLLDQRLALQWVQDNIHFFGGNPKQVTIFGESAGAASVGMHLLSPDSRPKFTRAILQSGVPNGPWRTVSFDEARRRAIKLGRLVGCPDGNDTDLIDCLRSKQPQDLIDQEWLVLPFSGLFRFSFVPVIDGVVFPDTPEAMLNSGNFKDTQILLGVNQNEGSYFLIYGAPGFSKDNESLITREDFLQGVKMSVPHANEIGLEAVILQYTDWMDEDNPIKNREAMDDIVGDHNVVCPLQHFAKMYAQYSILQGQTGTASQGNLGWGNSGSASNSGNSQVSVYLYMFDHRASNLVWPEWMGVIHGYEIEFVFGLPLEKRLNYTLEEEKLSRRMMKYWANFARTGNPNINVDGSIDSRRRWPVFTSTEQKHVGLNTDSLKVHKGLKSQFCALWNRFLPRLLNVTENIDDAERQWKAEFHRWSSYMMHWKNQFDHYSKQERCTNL

The term MIC denotes the least concentration at which growth counts as inhibited. The term IC50 denotes the concentration needed to halve the response being measured. A higher IC50 goes with lower potency. `CN1c2ccccc2C2(O)CCCN(C(=O)c3ccccc3F)C12` (stereo not given): the MIC result (in the assay on Aspergillus niger; with Cryptococcus neoformans; with Bacillus cereus; in the assay on Curvularia lunata; in the assay with Aspergillus flavus; in [1]) was “inactive” throughout. Also, the MIC result (in the assay on Candida tropicalis; in the assay with Cytospora; with Staphylococcus aureus; in the assay with Fusarium oxysporum; in [2]; with Penicillium citrinum) was “inactive” throughout. Also, in the assay on Candida, the MIC result was “inactive”. Further, the MIC in the assay with Ralstonia solanacearum is 125 µg/mL (≈ 383 µM); in the assay with Pseudomonas aeruginosa, 250 µg/mL (≈ 766 µM); with Verticillium dahliae, 125 µg/mL (≈ 383 µM); with Escherichia coli it was 250 µg/mL (≈ 766 µM). This molecule gave an IC50 on Acetylcholinesterase of 0.98 µM.

`Cc1ccccc1CN1c2ccccc2C2(Cc3ccccc3C)CCN(C(=O)C(F)(F)F)C12` (stereo not given): the MIC with Aspergillus niger was found to be 250 µg/mL (≈ 538 µM); in the assay on Curvularia lunata, 250 µg/mL (≈ 538 µM); with Aspergillus flavus, 250 µg/mL (≈ 538 µM); in the assay on Candida tropicalis, 125 µg/mL (≈ 269 µM); with Cytospora it was 250 µg/mL (≈ 538 µM); with Verticillium dahliae it was 125 µg/mL (≈ 269 µM). Moreover, the MIC (with Fusarium oxysporum; in assay [2]; in the assay with Candida) was 250 µg/mL (≈ 538 µM) each time. Moreover, the MIC entry (in the assay on Cryptococcus neoformans; in the assay with Bacillus cereus; in the assay with Ralstonia solanacearum; in assay [1]; with Pseudomonas aeruginosa; in the assay on Staphylococcus aureus) was “inactive” in each case. For the same molecule, the MIC entry with Penicillium citrinum and in the assay with Escherichia coli was “inactive” in each case. Further, half-maximal inhibition against Acetylcholinesterase (IC50) was put at 7.08 µM.

For `CCCCCCC(=O)N1CCC2(Cc3cccc(C)c3)c3ccccc3N(Cc3cccc(C)c3)C12` (stereo not given), the MIC stood at 250 µg/mL (≈ 520 µM) in the assay on Aspergillus niger; 125 µg/mL (≈ 260 µM) in the assay with Bacillus cereus; 62.5 µg/mL (≈ 130 µM) with Curvularia lunata; 125 µg/mL (≈ 260 µM) in the assay on Ralstonia solanacearum; 250 µg/mL (≈ 520 µM) in the assay with Aspergillus flavus; 250 µg/mL (≈ 520 µM) in assay [1]. Also, the MIC worked out at 125 µg/mL (≈ 260 µM) with Pseudomonas aeruginosa; 250 µg/mL (≈ 520 µM) in the assay with Candida tropicalis; 62.5 µg/mL (≈ 130 µM) with Cytospora; 125 µg/mL (≈ 260 µM) in the assay on Verticillium dahliae; 250 µg/mL (≈ 520 µM) in the assay on Staphylococcus aureus; 125 µg/mL (≈ 260 µM) in the assay with Fusarium oxysporum. Moreover, the MIC (in [2]; in the assay on Penicillium citrinum; in the assay with Candida; in the assay with Escherichia coli) was 250 µg/mL (≈ 520 µM) in each case. Moreover, the MIC entry in the assay on Cryptococcus neoformans was “inactive”. For the same molecule, at Acetylcholinesterase, the IC50 is 18.2 µM.

Consider `Cc1ccccc1CN1c2ccccc2C2(Cc3ccccc3C)CCN(C(=O)COc3ccccc3)C12` (stereo not given), for which the MIC in the assay with Aspergillus niger, in the assay with Bacillus cereus, with Aspergillus flavus, in the assay with Candida tropicalis, in the assay with Cytospora and in the assay with Verticillium dahliae was 250 µg/mL (≈ 497 µM) in each case. Also, the MIC with Fusarium oxysporum stood at 250 µg/mL (≈ 497 µM); in [2], 250 µg/mL (≈ 497 µM); in the assay with Penicillium citrinum it was 125 µg/mL (≈ 249 µM); with Candida, 250 µg/mL (≈ 497 µM). Also, the MIC entry (in the assay on Cryptococcus neoformans; in the assay with Curvularia lunata; in the assay with Ralstonia solanacearum; in assay [1]; with Pseudomonas aeruginosa; with Staphylococcus aureus) was “inactive” each time. Further, the MIC result with Escherichia coli was “inactive”. The IC50 on Acetylcholinesterase is 787 µM.

On to `CCCCC(=O)N1CCC2(Cc3cccc(C)c3)c3ccccc3N(Cc3cccc(C)c3)C12` (stereo not given), for which the MIC in the assay with Aspergillus niger was 250 µg/mL (≈ 552 µM); in the assay on Bacillus cereus, 250 µg/mL (≈ 552 µM); in the assay on Ralstonia solanacearum, 250 µg/mL (≈ 552 µM); with Aspergillus flavus it was 250 µg/mL (≈ 552 µM); in the assay on Pseudomonas aeruginosa it was 125 µg/mL (≈ 276 µM); in the assay with Candida tropicalis, 250 µg/mL (≈ 552 µM). Moreover, the MIC worked out at 250 µg/mL (≈ 552 µM) with Cytospora; 31.2 µg/mL (≈ 69 µM) in the assay on Verticillium dahliae; 250 µg/mL (≈ 552 µM) with Staphylococcus aureus; 125 µg/mL (≈ 276 µM) in the assay with Fusarium oxysporum; 250 µg/mL (≈ 552 µM) in the assay with Penicillium citrinum; 250 µg/mL (≈ 552 µM) in the assay on Candida. In addition, in the assay with Escherichia coli, the MIC was found to be 250 µg/mL (≈ 552 µM). Besides, the MIC entry (in the assay on Cryptococcus neoformans; in the assay with Curvularia lunata; in assay [1]; in [2]) was “inactive” each time. In addition, on Acetylcholinesterase, the IC50 was 0.133 µM.

For the origin of these results see ChEMBL document CHEMBL4304804, “Synthesis and biological evaluation of calycanthaceous alkaloid analogs” (Bioorg Med Chem, 2019).
